From patent publication US11739082B2, “Thiophene compounds, process for synthesis and use thereof” (AHAMMUNE BIOSCIENCES PRIVATE LIMITED, priority 2017, dated 2023)
Structures can show the parent of a compound that is named as a salt.

Columns and labels:
mouse B16F10 cells = assay: Recovery of cell viability after tunicamycin-induced stress, MTT assay; assay type: cell-based; conditions: B16-F10, tunicamycin 300 ng/ml, 72 h
Protocol: (§1) Methods used for Experimental Data: Mouse B16F10 or human A375 cells were seeded (5000 cells per well) in 96-well plates for 24 h. Cells were then treated in quadruplicate with multiple concentrations of compounds for 6 h. The compounds were dissolved in DMSO at 1000× concentration and then diluted to final concentration directly in cell culture medium. The vehicle control (VC) contains equal amount of DMSO. Cells were then treated with tunicamycin (Tm) (300 ng/ml for B16F10 and 100 ng/ml for A375 cells) and after 72 h of treatment, MTT assay was performed. Cell growth in vehicle control was calculated as 100% and effect of the compounds over tunicamycin treatment was calculated accordingly. EC50 values were calculated using GraphPad Prism 7 software.

human A375 cells = assay: as above; assay type: cell-based; conditions: A-375, tunicamycin 100 ng/ml, 72 h
Protocol: as §1

In the case of `Cc1cc(C)n(-c2cccc(-c3ccc(CC(=O)NCCN4CCOCC4)s3)c2)n1` [AB1117, 2-(5-(3-(3,5-dimethyl-1H-pyrazol-1-yl)phenyl)thiophen-2-yl)-N-(2-morpholinoethyl) acetamide], the EC50 (mouse B16F10 cells) is reported as 20.7 µM and the EC50 (human A375 cells) is reported as 26.7 µM.

Work on `O=C(Cc1ccc(-c2ccc(Cl)cc2Cl)s1)NCCN1CCS(=O)(=O)CC1` [AB1109, 2-(5-(2,4-dichlorophenyl)thiophen-2-yl)-N-(2-(1,1-dioxidothiomorpholino)ethyl)acetamide] yielded an EC50 (mouse B16F10 cells) of 6.49 µM and an EC50 (human A375 cells) of 13.9 µM.

`O=C(Cc1ccc(-c2ccc(Cl)cc2Cl)s1)NCCCN1CCS(=O)(=O)CC1` [AB1119, 2-(5-(2,4-dichlorophenyl)thiophen-2-yl)-N-(3-(1,1-dioxidothiomorpholino)propyl)acetamide] was tested, and the EC50 (mouse B16F10 cells) was 9.51 µM and the EC50 (human A375 cells) was 8.47 µM.

In the case of `O=C(Cc1ccc(-c2cc(Cl)cc(Cl)c2)s1)NCCCN1CCS(=O)(=O)CC1` [AB1164, 2-(5-(3,5-dichlorophenyl)thiophen-2-yl)-N-(3-(1,1-dioxidothiomorpholino)propyl)acetamide], the EC50 (mouse B16F10 cells) is reported as 9.72 µM and the EC50 (human A375 cells) is reported as 3.7 µM.

In the case of `CCCCNC(=O)Cc1ccc(-c2ccc(Cl)cc2)s1` [AB1010, N-butyl-2-(5-(4-chlorophenyl)thiophen-2-yl)acetamide], the EC50 (mouse B16F10 cells) is reported as 6.55 µM and the EC50 (human A375 cells) is reported as 5.22 µM.

Compound `O=C(Cc1ccc(-c2cccc(F)c2)s1)NCCN1CCOCC1` [AB1108, 2-(5-(3-fluorophenyl)thiophen-2-yl)-N-(2-morpholinoethyl)acetamide] has an EC50 (mouse B16F10 cells) of 43.7 µM and an EC50 (human A375 cells) of 34.2 µM.

`O=C(Cc1ccc(-c2cc(Cl)cc(Cl)c2)s1)NCCN1CCS(=O)(=O)CC1` [AB1163, 2-(5-(3,5-dichlorophenyl)thiophen-2-yl)-N-(2-(1,1-dioxidothiomorpholino)ethyl)acetamide] showed an EC50 (human A375 cells) of 5.15 µM.

`O=C(Cc1ccc(-c2ccccc2)s1)NCCN1CCOCC1` [AB1102, N-(2-morpholinoethyl)-2-(5-phenylthiophen-2-yl)acetamide] gave an EC50 (mouse B16F10 cells) of 55.7 µM and an EC50 (human A375 cells) of 71.1 µM.

In the case of `O=C(Cc1ccc(-c2ccc(Cl)cc2)s1)NCCN1CCOCC1` [AB1062, 2-(5-(4-chlorophenyl)thiophen-2-yl)-N-(2-morpholinoethyl)acetamide hydrochloride], the EC50 (mouse B16F10 cells) is reported as 32.1 µM and the EC50 (human A375 cells) is reported as 48.5 µM.

`O=C(Cc1ccc(-c2ccc(Cl)cc2)s1)NCCCN1CCOCC1` [AB1118, 2-(5-(4-chlorophenyl)thiophen-2-yl)-N-(3-morpholinopropyl)acetamide] gave an EC50 (mouse B16F10 cells) of 19.5 µM and an EC50 (human A375 cells) of 31.6 µM.

For `O=C(Cc1ccc(-c2cc(Cl)cc(Cl)c2)s1)NCCCN1CCOCC1` [AB1162, 2-(5-(3,5-dichlorophenyl)thiophen-2-yl)-N-(3-morpholinopropyl)acetamide], the EC50 (human A375 cells) was 6.02 µM.

`O=C(Cc1ccc(-c2ccc(Cl)cc2Cl)s1)NCCN1CCOCC1` [AB1099, 2-(5-(2,4-dichlorophenyl)thiophen-2-yl)-N-(2-morpholinoethyl)acetamide] was tested, and the EC50 (mouse B16F10 cells) was 10 µM and the EC50 (human A375 cells) was 17.3 µM.

For `O=C(Cc1ccc(-c2ccc(F)cc2)s1)NCCN1CCOCC1` [AB1093, 2-(5-(4-fluorophenyl)thiophen-2-yl)-N-(2-morpholinoethyl)acetamide], the EC50 (mouse B16F10 cells) was 36.2 µM and the EC50 (human A375 cells) was 31.2 µM.

`O=C(Cc1ccc(-c2cc(Cl)cc(Cl)c2)s1)NCCN1CCOCC1` [AB1114, 2-(5-(3,5-dichlorophenyl)thiophen-2-yl)-N-(2-morpholinoethyl)acetamide] gave an EC50 (mouse B16F10 cells) of 12.5 µM and an EC50 (human A375 cells) of 4.26 µM.

In the case of `O=C(Cc1ccc(-c2ccc(C(F)(F)F)cc2)s1)NCCN1CCOCC1` [AB1116, N-(2-morpholinoethyl)-2-(5-(4-(trifluoromethyl)phenyl)thiophen-2-yl)acetamide], the EC50 (mouse B16F10 cells) is reported as 13.7 µM.

`O=C(Cc1ccc(-c2ccc(Cl)cc2)s1)N1CCOCC1` [AB1151, 2-(5-(4-chlorophenyl)thiophen-2-yl)-1-morpholinoethan-1-one] showed an EC50 (human A375 cells) of 10.6 µM.

`O=C(Cc1ccc(-c2ccc(Cl)cc2Cl)s1)NCCCN1CCOCC1` [AB1110, 2-(5-(2,4-dichlorophenyl)thiophen-2-yl)-N-(3-morpholinopropyl)acetamide] was tested, and the EC50 (mouse B16F10 cells) was 6.24 µM and the EC50 (human A375 cells) was 62.7 µM.

`COc1ccc(-c2ccc(CC(=O)NCCN3CCOCC3)s2)cc1` [AB1115, 2-(5-(4-methoxyphenyl)thiophen-2-yl)-N-(2-morpholinoethyl)acetamide] was tested, and the EC50 (mouse B16F10 cells) was 53.4 µM.

Work on `O=C(Cc1ccc(-c2ccc(Cl)cc2)s1)N1CCSCC1` [AB1152, 2-(5-(4-chlorophenyl)thiophen-2-yl)-1-thiomorpholinoethan-1-one] yielded an EC50 (human A375 cells) of 4.86 µM.

With `O=C(Cc1ccc(-c2cccc(Cl)c2)s1)NCCN1CCOCC1` [AB1113, 2-(5-(3-chlorophenyl)thiophen-2-yl)-N-(2-morpholinoethyl)acetamide] the EC50 (mouse B16F10 cells) was 46.7 µM and the EC50 (human A375 cells) was 18.3 µM.
